Results reported in article PMC6979384, “Characterization of the plant homeodomain (PHD) reader family for their histone tail interactions” (Epigenetics & Chromatin, 2020).

Tests used:
Test in all cases: Histone peptide microarray
Type in all cases: binding, human
Settings in all cases: sheet "Array Heatmap"; GST-tagged reader; histone peptide array, total n = 4
[1] = test system: PHF23
Procedure, shortened: (§1)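 GST-tagged PHD readers, 0.5 μM, probed on a microarray of 293 synthetic histone peptides carrying single or combinatorial PTMs (optimized Petell protocol). Signals are averaged over 4 replicates and expressed as relative binding.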

[2] = test system: RAG2
Procedure, shortened: as §1

[3] = test system: PHF8
Procedure, shortened: as §1

[4] = test system: PHF2
Procedure, shortened: as §1

[5] = test system: MLL5
Procedure, shortened: as §1

[6] = test system: CHD5 (PCC)
Procedure, shortened: as §1

[7] = test system: AIRE (PP)
Procedure, shortened: as §1

[8] = test system: ING1
Procedure, shortened: as §1

[9] = test system: TAF3
Procedure, shortened: as §1

[10] = test system: CHD5 (PPCC)
Procedure, shortened: as §1

[11] = test system: ING4
Procedure, shortened: as §1

[12] = test system: BPTF (PB)
Procedure, shortened: as §1

[13] = test system: PHRF1 (RP)
Procedure, shortened: as §1

[14] = test system: ING2
Procedure, shortened: as §1

[15] = test system: BAZ2B
Procedure, shortened: as §1

[16] = test system: KDM7A
Procedure, shortened: as §1

[17] = test system: CHD4 (PPCC)
Procedure, shortened: as §1

[18] = test system: KDM4C (TTP)
Procedure, shortened: as §1

[19] = test system: MORC3 (CW)
Procedure, shortened: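 Purified PHD finger domains fused to GST are screened against 293 synthetic histone peptides bearing one or several post-translational modifications. The protein is used at 0.5 μM, and the signal from four replicate arrays is averaged, with standard deviation given.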

[20] = test system: SP140L
Procedure, shortened: as §1

[21] = test system: ING3
Procedure, shortened: as §1

[22] = test system: DPF2 (PPC2W2)
Procedure, shortened: as §1

[23] = test system: PHF13
Procedure, shortened: as §1

[24] = test system: KDM5A (1)
Procedure, shortened: as §1

[25] = test system: KDM5B (3)
Procedure, shortened: as §1

[26] = test system: ING5
Procedure, shortened: as §1

[27] = test system: TRIM66 (PB)
Procedure, shortened: as §1

[28] = test system: KDM5A (3)
Procedure, shortened: as §1

[29] = test system: PHF21A
Procedure, shortened: as §1

[30] = test system: DIDO1
Procedure, shortened: as §1

[31] = test system: KDM5B (1)
Procedure, shortened: as §1

Substance	Array Heatmap signal, PHF23 [1]	Array Heatmap signal, RAG2 [2]	Array Heatmap signal, PHF8 [3]	Array Heatmap signal, PHF2 [4]	Array Heatmap signal, MLL5 [5]	Array Heatmap signal, CHD5 (PCC) [6]	Array Heatmap signal, AIRE (PP) [7]	Array Heatmap signal, ING1 [8]	Array Heatmap signal, TAF3 [9]	Array Heatmap signal, CHD5 (PPCC) [10]	Array Heatmap signal, ING4 [11]	Array Heatmap signal, BPTF (PB) [12]	Array Heatmap signal, PHRF1 (RP) [13]	Array Heatmap signal, ING2 [14]	Array Heatmap signal, BAZ2B [15]	Array Heatmap signal, KDM7A [16]	Array Heatmap signal, CHD4 (PPCC) [17]	Array Heatmap signal, KDM4C (TTP) [18]	Array Heatmap signal, MORC3 (CW) [19]	Array Heatmap signal, SP140L [20]	other results
H3R17me2a + K18ac (1-25): H3 1-25	0.4823	0.2079	0.2767	0.4874	0.4712	0.615	0.3677	0.4981	0.2141	0.4057	0.3381	0.2769	0.7492	0.5776	0.3556	0.2298	0.4858	0.324	0.4929	0.2916	Array Heatmap signal, ING3 [21]: 0.4176; Array Heatmap signal, DPF2 (PPC2W2) [22]: 0.608; Array Heatmap signal, PHF13 [23]: 0.4521; Array Heatmap signal, KDM5A (1) [24]: 0.3724; Array Heatmap signal, KDM5B (3) [25]: 0.4124; Array Heatmap signal, ING5 [26]: 0.251; Array Heatmap signal, TRIM66 (PB) [27]: 0.6221; Array Heatmap signal, KDM5A (3) [28]: 0.5578; Array Heatmap signal, PHF21A [29]: 0.3605; Array Heatmap signal, DIDO1 [30]: 0.5785; Array Heatmap signal, KDM5B (1) [31]: 0.6531
H3R17me2a: H3 1-20 [Peptide H3R17me2a]	0.499	0.3136	0.337	0.6186	0.5506	0.5481	0.3243	0.5124	0.2956	0.3709	0.3252	0.2765	0.5177	0.6139	0.3052	0.2428	0.4461	0.2915	0.4952	0.2774	Array Heatmap signal, ING3 [21]: 0.3691; Array Heatmap signal, DPF2 (PPC2W2) [22]: 0.5665; Array Heatmap signal, PHF13 [23]: 0.4423; Array Heatmap signal, KDM5A (1) [24]: 0.3023; Array Heatmap signal, KDM5B (3) [25]: 0.4098; Array Heatmap signal, ING5 [26]: 0.2247; Array Heatmap signal, TRIM66 (PB) [27]: 0.5152; Array Heatmap signal, KDM5A (3) [28]: 0.5532; Array Heatmap signal, PHF21A [29]: 0.2924; Array Heatmap signal, DIDO1 [30]: 0.6933; Array Heatmap signal, KDM5B (1) [31]: 0.4837
H3R17me2s: H3 1-20 [Peptide H3R17me2s]	0.5417	0.2456	0.3293	0.5815	0.5344	0.7264	0.4113	0.5076	0.274	0.5108	0.4307	0.3293	0.8026	0.6161	0.4477	0.306	0.5449	0.4268	0.5429	0.3428	Array Heatmap signal, ING3 [21]: 0.447; Array Heatmap signal, DPF2 (PPC2W2) [22]: 0.6998; Array Heatmap signal, PHF13 [23]: 0.5969; Array Heatmap signal, KDM5A (1) [24]: 0.4442; Array Heatmap signal, KDM5B (3) [25]: 0.5222; Array Heatmap signal, ING5 [26]: 0.3275; Array Heatmap signal, TRIM66 (PB) [27]: 0.6637; Array Heatmap signal, KDM5A (3) [28]: 0.5756; Array Heatmap signal, PHF21A [29]: 0.4345; Array Heatmap signal, DIDO1 [30]: 0.6492; Array Heatmap signal, KDM5B (1) [31]: 0.601
